Laboratory results reported in patent publication US20050215589A1, “Inhibitors of 5-HT2A receptor” (priority 2003, published 2005).

How the values were obtained:
[1] = biological target: T1, 5-HT2C (Homo sapiens, UniProt P28335); test: FLIPR based assay, effect on 10 nM 5-HT induced Ca2+-currents; format: cell-based; conditions: FLIPR functional assays
T1 sequence (P28335 33-458): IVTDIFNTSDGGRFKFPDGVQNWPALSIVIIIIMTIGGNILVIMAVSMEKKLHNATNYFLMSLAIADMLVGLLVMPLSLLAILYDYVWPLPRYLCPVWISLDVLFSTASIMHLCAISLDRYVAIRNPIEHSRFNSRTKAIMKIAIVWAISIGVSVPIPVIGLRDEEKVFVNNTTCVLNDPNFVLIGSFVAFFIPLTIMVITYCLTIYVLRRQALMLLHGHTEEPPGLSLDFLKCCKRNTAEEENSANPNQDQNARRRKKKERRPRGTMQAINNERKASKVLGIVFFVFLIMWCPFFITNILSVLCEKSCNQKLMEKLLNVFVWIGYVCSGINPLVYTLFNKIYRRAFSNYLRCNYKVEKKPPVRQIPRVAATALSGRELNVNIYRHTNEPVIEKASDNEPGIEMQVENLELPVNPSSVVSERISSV
Procedure: The activity at 5-HT2C receptors was studied in a FLIPR based assay, measuring the effect of compounds on 10 nM 5-HT induced_Ca^2+-currents.

[2] = biological target: T2, 5-HT6 (Homo sapiens, UniProt P50406); test: Radioligand displacement binding (3H-5-HT); conditions: recombinant human receptor in CHO or HEK293; tracer 3H-5-HT
T2 construct: expressed in transfected cells; host or cells: CHO or HEK293
T2 sequence (P50406 whole entry): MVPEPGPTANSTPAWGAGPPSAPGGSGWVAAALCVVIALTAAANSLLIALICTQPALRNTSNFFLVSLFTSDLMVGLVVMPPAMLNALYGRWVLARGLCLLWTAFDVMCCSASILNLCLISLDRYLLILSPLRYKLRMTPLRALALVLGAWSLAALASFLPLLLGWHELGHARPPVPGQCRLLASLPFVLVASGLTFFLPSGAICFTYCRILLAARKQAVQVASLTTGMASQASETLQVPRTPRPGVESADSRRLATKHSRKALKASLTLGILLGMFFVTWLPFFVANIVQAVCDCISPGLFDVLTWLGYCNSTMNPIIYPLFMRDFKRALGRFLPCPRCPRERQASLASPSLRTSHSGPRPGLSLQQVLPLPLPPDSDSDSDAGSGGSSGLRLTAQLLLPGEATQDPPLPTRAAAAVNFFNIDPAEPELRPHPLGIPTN
Procedure: (§1) The affinity constants of compounds were determined using recombinant human serotonin receptors stably expressed in fibroblast cell lines (CHO or HEK293), measuring the ability of the compounds to displace radio-labelled tracers using scintillation proximity assays or filter binding assays. For 5-HT1B, 5-HT2B and 5-HT2C receptor binding studies ^3H-LSD was used as radio ligand, for 5-HT2A and 5-HT6 ^3H-5-HT was used as tracer, while the binding constant to 5-HT1A was determined using ^3H-8-OH-DPAT. The non-selective serotonin receptor antagonist mianserine was used as reference substance.
(§2) The calculation of the Ki values for the inhibitors was performed by use of Activity Base. The Ki value is calculated from IC50 using the Cheng Prushoff equation (with reversible inhibition that follows the Michaelis-Menten equation): […] [Cheng, Y. C.; Prushoff, W. H. Biochem. Pharmacol. 1973, 22, 3099-3108].

[3] = biological target: T3, 5-HT2A (Homo sapiens, UniProt P28223); test: Radioligand displacement binding (3H-5-HT); set-up: expressed in transfected cells; host or cells: CHO or HEK293
T3 sequence (P28223 whole entry): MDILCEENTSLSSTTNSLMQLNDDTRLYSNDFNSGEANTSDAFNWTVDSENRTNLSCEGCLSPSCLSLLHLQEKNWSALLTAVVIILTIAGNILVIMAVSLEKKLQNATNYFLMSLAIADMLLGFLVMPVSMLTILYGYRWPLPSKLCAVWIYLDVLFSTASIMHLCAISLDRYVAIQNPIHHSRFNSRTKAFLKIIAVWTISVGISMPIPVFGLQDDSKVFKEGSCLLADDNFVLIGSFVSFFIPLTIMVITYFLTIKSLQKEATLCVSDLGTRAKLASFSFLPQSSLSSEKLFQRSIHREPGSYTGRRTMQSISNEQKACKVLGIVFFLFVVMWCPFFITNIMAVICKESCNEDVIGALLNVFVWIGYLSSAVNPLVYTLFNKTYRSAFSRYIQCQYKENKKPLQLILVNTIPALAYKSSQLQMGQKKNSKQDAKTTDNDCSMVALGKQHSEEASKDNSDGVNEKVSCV
Procedure: as §1, §2

[4] = biological target: T4, 5-HT1B (Homo sapiens, UniProt P28222); test: Radioligand displacement binding (3H-LSD); conditions: recombinant human receptor in CHO or HEK293; tracer 3H-LSD
T4 construct: expressed in transfected cells; host or cells: CHO or HEK293
T4 sequence (P28222 whole entry): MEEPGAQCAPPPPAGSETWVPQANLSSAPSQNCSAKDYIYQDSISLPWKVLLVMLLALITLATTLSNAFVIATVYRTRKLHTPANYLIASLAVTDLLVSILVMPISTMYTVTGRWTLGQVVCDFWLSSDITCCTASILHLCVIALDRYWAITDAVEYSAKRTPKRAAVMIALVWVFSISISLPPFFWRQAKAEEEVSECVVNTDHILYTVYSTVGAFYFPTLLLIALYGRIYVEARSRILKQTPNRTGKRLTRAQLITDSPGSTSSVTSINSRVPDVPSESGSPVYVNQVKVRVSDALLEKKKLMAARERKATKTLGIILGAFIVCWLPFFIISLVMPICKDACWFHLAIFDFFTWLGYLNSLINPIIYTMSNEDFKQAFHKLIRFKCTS
Procedure: as §1, §2

[5] = biological target: T5, 5-HT2B (Homo sapiens, UniProt P41595); test: Radioligand displacement binding (3H-LSD); conditions: recombinant human receptor in CHO or HEK293; tracer 3H-LSD
T5 construct: expressed in transfected cells; host or cells: CHO or HEK293
T5 sequence (P41595 whole entry): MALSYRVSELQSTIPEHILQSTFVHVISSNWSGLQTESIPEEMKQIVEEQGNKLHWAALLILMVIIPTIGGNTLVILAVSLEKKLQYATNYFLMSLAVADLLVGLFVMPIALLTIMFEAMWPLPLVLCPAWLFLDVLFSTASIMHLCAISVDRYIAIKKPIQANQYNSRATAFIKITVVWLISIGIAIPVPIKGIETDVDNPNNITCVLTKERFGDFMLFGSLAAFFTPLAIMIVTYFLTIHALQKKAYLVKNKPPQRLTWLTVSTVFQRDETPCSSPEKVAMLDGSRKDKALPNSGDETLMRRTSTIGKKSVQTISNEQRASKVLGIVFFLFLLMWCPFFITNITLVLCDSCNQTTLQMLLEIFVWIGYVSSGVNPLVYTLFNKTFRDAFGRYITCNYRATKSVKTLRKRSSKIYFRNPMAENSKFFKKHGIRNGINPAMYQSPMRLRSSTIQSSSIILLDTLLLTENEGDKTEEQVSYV
Procedure: as §1, §2

[6] = biological target: T6, 5-HT1A (Homo sapiens, UniProt P08908); test: Radioligand displacement binding (3H-8-OH-DPAT); conditions: recombinant human receptor in CHO or HEK293; tracer 3H-8-OH-DPAT
T6 construct: expressed in transfected cells; host or cells: CHO or HEK293
T6 sequence (P08908 1-422): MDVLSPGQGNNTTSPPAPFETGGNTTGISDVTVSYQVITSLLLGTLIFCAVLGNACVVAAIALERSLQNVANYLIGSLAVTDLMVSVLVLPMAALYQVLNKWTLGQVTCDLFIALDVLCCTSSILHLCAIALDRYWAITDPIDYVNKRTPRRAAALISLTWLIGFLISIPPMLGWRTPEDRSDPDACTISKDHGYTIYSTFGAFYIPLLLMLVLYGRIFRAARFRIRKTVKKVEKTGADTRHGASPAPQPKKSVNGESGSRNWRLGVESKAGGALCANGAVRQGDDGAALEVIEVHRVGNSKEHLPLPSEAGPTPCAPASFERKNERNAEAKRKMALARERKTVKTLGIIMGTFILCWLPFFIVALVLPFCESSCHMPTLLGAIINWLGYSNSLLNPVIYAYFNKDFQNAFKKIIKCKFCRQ
Procedure: as §1, §2

[7] = biological target: T1, 5-HT2C; test: Radioligand displacement binding (3H-LSD); set-up: expressed in transfected cells; host or cells: CHO or HEK293; conditions: recombinant human receptor in CHO or HEK293; tracer 3H-LSD
Procedure: as §1, §2

[8] = biological target: T3, 5-HT2A; test: FLIPR functional assay, inhibition of the 5-HT-evoked peak response (primary screening and IC50 determination); format: cell-based; set-up: expressed in transfected cells; host or cells: CHO; conditions: CHO cells expressing 5-HT2A, 15 min pre-incubation, Ki calculated from IC50 (Cheng-Prusoff)
Procedure: CHO cells expressing 5-HT2A receptors seeded in 384 well plates are pre-loaded with Fluo-4AM fluorescent dye and then incubated with compound (10 μM for primary screen) for 15 min. Fluorescent intensity is recorded using a Fluorometric imaging plate reader (FLIPR384, Molecular Devices) and inhibition of the peak response evoked by 5-HT (EC70 concentration) is calculated.
IC50 determinations are performed utilizing the same functional assay as described for primary screening (15 min antagonist compound pre-incubation), applying the compounds in the dose range of 3 nM to 10 μM.
as §2

With COc1cccc(OC)c1OCCN1CCC(C(=O)NC(=O)Nc2cccc(C(F)(F)F)c2)CC1 [Example 2, 1-[2-(2,6-dimethoxyphenoxy)ethyl]-N-({[3-(trifluoromethyl)phenyl]amino}carbonyl)piperidine-4-carboxamide] the “Selectivity at 5-HT2A versus the 5-HT2C receptor in terms of efficacy” value [1] was “selective”, the Ki [2] was over 1000 nM and the “Selectivity over five other serotonin receptors (5-HT2C, 5-HT2B, 5-HT1A, 5-HT6 and 5-HT1B)” value ([3]; binding, 5-HT2A versus the other receptors) was “highly selective”. For the same compound, the “Affinity for the 5-HT2A receptor subtype (Ki, in words)” value ([3]; equilibrium displacement binding) was “in the nanomolar range”, the Ki ([3]; recombinant human receptor in CHO or HEK293, tracer 3H-5-HT) was 23 nM and the Ki [4] was over 1000 nM. The Ki [5] was over 1000 nM, the Ki [6] was over 1000 nM and the Ki [7] was over 1000 nM. The Ki [8] was 32.3 nM.
